In patent publication US11325913B2, “Compounds and methods for the treatment of malaria” (THE BROAD INSTITUTE, INC., priority 2013, dated 2022):

Tested on: P. falciparum Dd2
Assay: Activity against the Dd2 strain of P. falciparum (SYBR Green I, 72 h)
Format: cell-based
Details: P. falciparum Dd2, 72 h incubation
Summary of the method: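 Parasites in human RBCs at 1% parasitemia and 1.0% hematocrit, exposed to compounds (0.125% DMSO) for 72 h at 37°C under 93% N2/4% CO2/3% O2. SYBR Green I in saponin/Triton lysis buffer added, 24 h staining, fluorescence read at 485/530 nm. EC50 derived against 20 μM mefloquine background and DMSO baseline.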

| EC50 | Compound |
| --- | --- |
| 61 nM | O=C(Nc1ccccc1)N1CCCCN2[C@H](CO)[C@H](c3ccc(C#Cc4ccccc4)cc3)[C@@H]2C1 [Compound 78, (8R,9R,10S)-10-(hydroxymethyl)-N-phenyl-9-[4-(2-phenylethynyl)phenyl]-1,6-diazabicyclo[6.2.0] decane-6-carboxamide] |

Same assay, conditions: Plasmodium falciparum, DD2, 72 h, P. falciparum Dd2, 72 h incubation

| EC50 | Compound |
| --- | --- |
| 87 nM | COc1ccc(NC(=O)N2CCCCCN3[C@H](CO)[C@H](c4ccc(C#Cc5ccccc5)cc4)[C@@H]3C2)cc1 [Compound 74, (9R,10R,11S)-11-(hydroxymethyl)-N-(4-methoxyphenyl)-10-[4-(2-phenylethynyl)phenyl]-1,7-diazabicyclo[7.2.0] undecane-7-carboxamide] |
| 71 nM | COc1ccc(NC(=O)N2CCCCN3[C@H](CO)[C@H](c4ccc(C#Cc5ccc(F)cc5F)cc4)[C@@H]3C2)cc1 [Compound 75, (8R,9R,10S)-9-{4-[2-(2,4-difluorophenyl)ethynyl]phenyl}-10-(hydroxymethyl)-N-(4-methoxyphenyl)-1,6-diazabicyclo[6.2.0] decane-6-carboxamide] |
| 8 nM | COc1ccc(NC(=O)N2CCCCN3[C@H](CN(C)C(C)=O)[C@H](c4ccc(C#Cc5ccccc5)cc4)[C@@H]3C2)cc1 [Compound 76, (8R,9S,10S)-N-(4-methoxyphenyl)-10-[(N-methylacetamido)methyl]-9-[4-(2-phenylethynyl)phenyl]-1,6-diazabicyclo[6.2.0] decane-6-carboxamide] |
| 4890 nM | COc1ccc(NC(=O)N2CCCCN3[C@H](CO)[C@H](c4ccc(-c5ccn(-c6ccccc6)n5)cc4)[C@@H]3C2)cc1 [Compound 77, (8R,9R,10S)-10-(hydroxymethyl)-N-(4-methoxyphenyl)-9-[4-(1-phenyl-1H-pyrazol-3-yl)phenyl]-1,6-diazabicyclo[6.2.0] decane-6-carboxamide] |
| 850 nM | COc1ccc(NC(=O)N2CCCN3[C@H](CO)[C@H](c4ccc(C#Cc5ccccc5)cc4)[C@@H]3C2)cc1 [Compound 79, (7R,8R,9S)-9-(hydroxymethyl)-N-(4-methoxyphenyl)-8-[4-(2-phenylethynyl)phenyl]-1,5-diazabicyclo[5.2.0] nonane-5-carboxamide] |
| 23 nM | COc1ccc(NC(=O)N2CCCCN3[C@H](COCCC(=O)O)[C@H](c4ccc(C#Cc5ccccc5)cc4)[C@@H]3C2)cc1 [Compound 80, 3-(((8R,9R,10S)-6-((4-methoxyphenyl)carbamoyl)-9-(4-(phenylethynyl)phenyl)-1,6-diazabicyclo[6.2.0]decan-10-yl)methoxy)propanoic acid] |
| 34 nM | COc1ccc(NC(=O)N2CCCCN3[C@H](CO)[C@H](c4ccc(C#Cc5ccccc5)cn4)[C@@H]3C2)cc1 [Compound 81, (8R,9R,10S)-10-(hydroxymethyl)-N-(4-methoxyphenyl)-9-(5-(phenylethynyl)pyridin-2-yl)-1,6-diazabicyclo[6.2.0] decane-6-carboxamide] |
| 3 nM | COc1ccc(NC(=O)N2CCCCN3[C@@H](CNC(C)=O)[C@H](c4ccc(C#Cc5ccccc5)cc4)[C@@H]3C2)cc1 [Compound 82, (8R,9S,10R)-10-(acetamidomethyl)-N-(4-methoxyphenyl)-9-(4-(phenylethynyl)phenyl)-1,6-diazabicyclo[6.2.0] decane-6-carboxamide] |
| 24 nM | O=C(Nc1ccc(OCCN2CCOCC2)cc1)N1CCCCN2[C@H](CO)[C@H](c3ccc(C#Cc4ccccc4)cc3)[C@@H]2C1 [Compound 83, (8R,9R,10S)-10-(hydroxymethyl)-N-(4-(2-morpholinoethoxy)phenyl)-9-(4-(phenylethynyl)phenyl)-1,6-diazabicyclo[6.2.0] decane-6-carboxamide] |
| 52 nM | COc1ccc(NC(=O)N2CCCCN3[C@@H](CN4CCOCC4)[C@H](c4ccc(C#Cc5ccccc5)cc4)[C@@H]3C2)cc1 [Compound 84, (8R,9S,10R)-N-(4-methoxyphenyl)-10-(morpholinomethyl)-9-(4-(phenylethynyl)phenyl)-1,6-diazabicyclo[6.2.0] decane-6-carboxamide] |
